# From ChEMBL document CHEMBL1201862, “PubChem BioAssay data set” (2004)
#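 Dose response: 5 concentrations. Exposure: 48 h. Format: 96-well plates. Endpoint: linear interpolation; highest concentration if not reached. The concentration for 50% growth inhibition is given as GI50.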 The source made the active and inactive calls. Rule as the data show it: active = GI50 up to about 1.1 µM and inactive = higher.
# Legend:
# Assay in all cases: NCI tumour cell line growth inhibition, 48 h
# [1] = system: A549
# [2] = system: CAKI-1
# [3] = system: RPMI-8226
# [4] = system: SNB-19
# [5] = system: SW-620
# [6] = system: UACC-257
# [7] = system: ACHN
# [8] = system: U-251
# [9] = system: Malme-3M
# [10] = system: SNB-75
# [11] = system: SK-MEL-2
# [12] = system: SN12C
# [13] = system: OVCAR-5
# [14] = system: HOP-62
# [15] = system: RXF 393
# [16] = system: M14
# [17] = system: SR
Structure (SMILES),GI50 [1],GI50 [2],GI50 [3],GI50 [4],GI50 [5],GI50 [6],GI50 [7],GI50 [8],GI50 [9],GI50 [10],GI50 [11],GI50 [12],GI50 [13],GI50 [14],GI50 [15],GI50 [16],GI50 [17]
CC1=C(C(=O)Nc2cccc(C(F)(F)F)c2)C(c2ccc(O)cc2)C(C(=O)Nc2cccc(C(F)(F)F)c2)=C(C)N1,24.4 µM (inactive),11.6 µM (inactive),7.35 µM (inactive),32.2 µM (inactive),19.4 µM (inactive),17.7 µM (inactive),20.3 µM (inactive),17.1 µM (inactive),25.8 µM (inactive),17.2 µM (inactive),17.3 µM (inactive),> 10 µM (inactive),24.9 µM (inactive),19.5 µM (inactive),10.1 µM (inactive),14.9 µM (inactive),
CCOc1ccc2c(c1)[n+]([O-])c(-c1nc3ccccc3s1)c(N)[n+]2[O-],61.8 µM (inactive),83.4 µM (inactive),44.3 µM (inactive),48.1 µM (inactive),86.7 µM (inactive),42.1 µM (inactive),55.1 µM (inactive),46.7 µM (inactive),> 100 µM (inactive),57.4 µM (inactive),52.8 µM (inactive),82.6 µM (inactive),> 100 µM (inactive),88.7 µM (inactive),,60.7 µM (inactive),
CCC(CC)NC1=C(NC(C)=O)C(=O)c2ccccc2C1=O,> 50 µM (inactive),,,> 50 µM (inactive),> 50 µM (inactive),> 50 µM (inactive),> 50 µM (inactive),> 50 µM (inactive),45.4 µM (inactive),> 50 µM (inactive),> 50 µM (inactive),> 50 µM (inactive),,> 50 µM (inactive),> 50 µM (inactive),> 50 µM (inactive),> 50 µM (inactive)
Oc1nc(CC(O)c2ccc(Cl)c(Cl)c2)cc(-c2ccccc2)n1 (configuration not stated),27.1 µM (inactive),55.6 µM (inactive),,67.9 µM (inactive),> 100 µM (inactive),36.1 µM (inactive),> 100 µM (inactive),> 100 µM (inactive),46.8 µM (inactive),33 µM (inactive),26.1 µM (inactive),> 100 µM (inactive),11.2 µM (inactive),> 100 µM (inactive),41.1 µM (inactive),91 µM (inactive),
CCOC(=O)/C(=C/c1ccc(N(C)C)cc1)N(CC)CC,48.1 µM (inactive),> 100 µM (inactive),26.1 µM (inactive),> 100 µM (inactive),44 µM (inactive),35.8 µM (inactive),76.2 µM (inactive),> 100 µM (inactive),> 100 µM (inactive),,58.2 µM (inactive),84.7 µM (inactive),> 100 µM (inactive),> 100 µM (inactive),,> 100 µM (inactive),48.6 µM (inactive)
CCN1CCC(O)(/C=C/c2ccccc2)C(C(=O)/C=C/c2ccccc2)C1 (configuration not stated),4.86 µM (inactive),2.71 µM (inactive),,9.98 µM (inactive),1.69 µM (inactive),1.98 µM (inactive),1.72 µM (inactive),2.15 µM (inactive),2.26 µM (inactive),6.4 µM (inactive),2.65 µM (inactive),1.79 µM (inactive),3.06 µM (inactive),13.9 µM (inactive),1.67 µM (inactive),2.09 µM (inactive),
Cc1ccc(C2[C@H]3C(=O)N(c4ccc(Cc5ccc(N6C(=O)[C@@H]7ON(c8ccccc8)C(c8ccc(C)cc8)[C@@H]7C6=O)cc5)cc4)C(=O)[C@H]3ON2c2ccccc2)cc1 (some centres not stated),> 100 µM (inactive),> 100 µM (inactive),> 100 µM (inactive),,> 100 µM (inactive),> 100 µM (inactive),> 100 µM (inactive),> 100 µM (inactive),> 100 µM (inactive),99.8 µM (inactive),> 100 µM (inactive),> 100 µM (inactive),> 100 µM (inactive),> 100 µM (inactive),> 100 µM (inactive),91.6 µM (inactive),
O=C1NC(=O)C(C(=O)C(=O)Nc2cc(Cl)ccc2Cl)C(=O)N1,> 100 µM (inactive),,> 100 µM (inactive),> 100 µM (inactive),> 100 µM (inactive),> 100 µM (inactive),> 100 µM (inactive),> 100 µM (inactive),> 100 µM (inactive),83.2 µM (inactive),> 100 µM (inactive),,> 100 µM (inactive),> 100 µM (inactive),> 100 µM (inactive),> 100 µM (inactive),
COC(=O)C1=C(C)N(NC(=O)Nc2ccccc2)C2(N)N(NC(=O)Nc3ccccc3)C(C)=C(C(=O)OC)C12C(=O)OC (configuration not stated),> 100 µM (inactive),23.7 µM (inactive),26.8 µM (inactive),,63.4 µM (inactive),16.4 µM (inactive),98.2 µM (inactive),43.3 µM (inactive),84.5 µM (inactive),36.1 µM (inactive),36 µM (inactive),63.2 µM (inactive),> 100 µM (inactive),,75.9 µM (inactive),47.5 µM (inactive),
O=C(Nc1ccccc1SC(/C=C/NNC1=NN=C(c2ccccc2)C(c2ccccc2)N1)c1ccccc1)c1ccc(Cl)cc1Cl (configuration not stated),38.9 µM (inactive),,58.6 µM (inactive),80 µM (inactive),> 100 µM (inactive),> 100 µM (inactive),82.8 µM (inactive),25.6 µM (inactive),> 100 µM (inactive),52.4 µM (inactive),20.9 µM (inactive),32.6 µM (inactive),44.8 µM (inactive),27.3 µM (inactive),40.7 µM (inactive),,
O=C1c2ccccc2C(=O)N1CCN(CCN1C(=O)c2ccccc2C1=O)Cn1cccn1,> 100 µM (inactive),> 100 µM (inactive),29.2 µM (inactive),> 100 µM (inactive),41.8 µM (inactive),> 100 µM (inactive),> 100 µM (inactive),> 100 µM (inactive),,87.3 µM (inactive),> 100 µM (inactive),> 100 µM (inactive),,> 100 µM (inactive),> 100 µM (inactive),> 100 µM (inactive),
CCc1c(-c2coc(CC/C(C)=C/c3ccccc3)n2)oc(OC)c(C)c1=O,,> 52.2 µM (inactive),11.7 µM (inactive),23.1 µM (inactive),9.25 µM (inactive),> 100 µM (inactive),22.5 µM (inactive),29 µM (inactive),> 59.8 µM (inactive),49.4 µM (inactive),60.1 µM (inactive),> 42.1 µM (inactive),> 100 µM (inactive),> 40 µM (inactive),,34.8 µM (inactive),< 0.01 µM (active)
CC1C=C[C@H](Sc2ccccc2)CC[C@@]1(C)O (some centres not stated),> 100 µM (inactive),> 100 µM (inactive),57.3 µM (inactive),89.9 µM (inactive),> 100 µM (inactive),> 100 µM (inactive),> 100 µM (inactive),> 100 µM (inactive),> 100 µM (inactive),97.1 µM (inactive),> 100 µM (inactive),> 100 µM (inactive),> 100 µM (inactive),> 100 µM (inactive),76.2 µM (inactive),> 100 µM (inactive),
